Earlier results, collected in patent publication US9060929B2, “Alprostadil for treatment of premature ejaculation” (Nexmed Holdings, Inc., priority 2003, dated 2015).
Where two headings read alike, the source gives them in different places.

How the values were obtained:
[1] = tested on: men with premature ejaculation and/or erectile dysfunction
patients with PE = details: 6 months

Row | SMILES | latency to ejaculation ([1]; PE and PE+ED group taken together, p=0.007) | latency to ejaculation ([1]; PE+ED group, p=0.03) | ejaculation latency after treatment (patients with PE; PE group, 50 mg sertraline four hours before sex) [s] | ejaculation latency after treatment (patients with PE; PE+ED group (sildenafil-treated), 50 mg sertraline) [s]
1 | CNCCC(Oc1ccc(C(F)(F)F)cc1)c1ccccc1 (stereo not shown) [fluoxetine] | increased significantly | increased significantly | – | –
2 | CN[C@H]1CC[C@@H](c2ccc(Cl)c(Cl)c2)c2ccccc21 [sertraline] | – | – | 247.2 | 111.6
